From the kinase profiling compilation of Christmann-Franck et al. (2016)

How the values were obtained:
Assay in all cases: KINOMEscan competition binding
Settings in all cases: compound 10.0 µM
BRSK1 (human) = BRSK1 (human) (UniProt Q8TDC3)
CAMK2A (human) = CAMK2A (human) (UniProt Q9UQM7)
CDC42BPB (human) = CDC42BPB (human) (UniProt Q9Y5S2)
CDK5 (human) = CDK5 (human) (UniProt Q00535)
CSNK1G3 (human) = CSNK1G3 (human) (UniProt Q9Y6M4)
DAPK2 (human) = DAPK2 (human) (UniProt Q9UIK4)
DCLK2 (human) = DCLK2 (human) (UniProt Q8N568)
FER (human) = FER (human) (UniProt P16591)
[1] = tested on: FLT3 (human), P36888 [D835H]
FYN (human) = FYN (human) (UniProt P06241)
GRK4 (human) = GRK4 (human) (UniProt P32298)
[2] = biological target: JAK1 JH1 catalytic (human) (UniProt P23458)
KIT (human) = KIT (human) (UniProt P10721)
MAP2K1 (human) = MAP2K1 (human) (UniProt Q02750)
MAP3K10 (human) = MAP3K10 (human) (UniProt Q02779)
MAP3K2 (human) = MAP3K2 (human) (UniProt Q9Y2U5)
MAP3K6 (human) = MAP3K6 (human) (UniProt O95382)
MAPK14 (human) = MAPK14 (human) (UniProt Q16539)
MKNK1 (human) = MKNK1 (human) (UniProt Q9BUB5)
MYLK2 (human) = MYLK2 (human) (UniProt Q9H1R3)
NEK1 (human) = NEK1 (human) (UniProt Q96PY6)
NUAK1 (human) = NUAK1 (human) (UniProt O60285)
PAK2 (human) = PAK2 (human) (UniProt Q13177)
PIK3CD (human) = PIK3CD (human) (UniProt O00329)
PIM1 (human) = PIM1 (human) (UniProt P11309)
PLK4 (human) = PLK4 (human) (UniProt O00444)
PRKCE (human) = PRKCE (human) (UniProt Q02156)
RPS6KA4 KD1 (human) = RPS6KA4 KD1 (human) (UniProt O75676)
RPS6KB1 (human) = RPS6KB1 (human) (UniProt P23443)
SNRK (human) = SNRK (human) (UniProt Q9NRH2)
STK11 (human) = STK11 (human) (UniProt Q15831)
TAOK2 (human) = TAOK2 (human) (UniProt Q9UL54)
TRPM6 (human) = TRPM6 (human) (UniProt Q9BX84)
[3] = biological target: TYK2 JH1 catalytic (human) (UniProt P29597)
MAP3K3 (human) = MAP3K3 (human) (UniProt Q99759)
MAP4K5 (human) = MAP4K5 (human) (UniProt Q9Y4K4)
[4] = tested on: MET (human), P08581 [Y1235D]
STK35 (human) = STK35 (human) (UniProt Q8TDR2)
[5] = tested on: ABL1 (human), P00519 [Y253F]
MAPK12 (human) = MAPK12 (human) (UniProt P53778)

DCLK2 (human), sequence (Q8N568 whole entry, looked up): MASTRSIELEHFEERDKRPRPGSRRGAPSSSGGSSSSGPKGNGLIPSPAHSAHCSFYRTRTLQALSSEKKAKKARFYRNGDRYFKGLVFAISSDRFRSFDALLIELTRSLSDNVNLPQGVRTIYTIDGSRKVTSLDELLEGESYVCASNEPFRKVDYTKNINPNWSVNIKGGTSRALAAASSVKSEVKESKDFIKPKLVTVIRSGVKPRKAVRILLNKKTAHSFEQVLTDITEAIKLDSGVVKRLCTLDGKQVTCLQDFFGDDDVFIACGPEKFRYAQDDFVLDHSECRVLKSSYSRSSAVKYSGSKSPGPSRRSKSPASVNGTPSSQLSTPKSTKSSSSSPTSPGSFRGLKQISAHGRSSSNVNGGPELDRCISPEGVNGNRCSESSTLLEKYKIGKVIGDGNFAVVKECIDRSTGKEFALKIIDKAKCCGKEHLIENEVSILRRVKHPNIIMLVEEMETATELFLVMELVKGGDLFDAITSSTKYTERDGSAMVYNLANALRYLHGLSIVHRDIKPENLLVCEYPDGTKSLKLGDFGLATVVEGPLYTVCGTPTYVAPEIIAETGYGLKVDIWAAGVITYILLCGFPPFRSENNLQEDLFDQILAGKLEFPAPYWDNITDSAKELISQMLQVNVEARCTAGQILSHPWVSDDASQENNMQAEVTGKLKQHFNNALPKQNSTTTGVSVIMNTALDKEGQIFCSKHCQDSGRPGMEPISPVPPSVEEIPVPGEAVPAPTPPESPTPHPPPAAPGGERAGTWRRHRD
MAP2K1 (human), sequence (Q02750 whole entry, looked up): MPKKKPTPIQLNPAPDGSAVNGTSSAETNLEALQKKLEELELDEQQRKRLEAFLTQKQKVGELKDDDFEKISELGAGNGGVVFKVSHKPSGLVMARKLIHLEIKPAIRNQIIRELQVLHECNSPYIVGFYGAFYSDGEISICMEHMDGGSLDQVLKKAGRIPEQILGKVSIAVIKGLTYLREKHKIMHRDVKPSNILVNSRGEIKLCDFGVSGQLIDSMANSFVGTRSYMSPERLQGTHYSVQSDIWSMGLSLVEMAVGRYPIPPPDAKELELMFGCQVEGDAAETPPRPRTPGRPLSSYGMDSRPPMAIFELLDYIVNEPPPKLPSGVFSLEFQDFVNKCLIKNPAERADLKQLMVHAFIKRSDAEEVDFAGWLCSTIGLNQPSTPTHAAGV
PIM1 (human), sequence (P11309 whole entry, looked up): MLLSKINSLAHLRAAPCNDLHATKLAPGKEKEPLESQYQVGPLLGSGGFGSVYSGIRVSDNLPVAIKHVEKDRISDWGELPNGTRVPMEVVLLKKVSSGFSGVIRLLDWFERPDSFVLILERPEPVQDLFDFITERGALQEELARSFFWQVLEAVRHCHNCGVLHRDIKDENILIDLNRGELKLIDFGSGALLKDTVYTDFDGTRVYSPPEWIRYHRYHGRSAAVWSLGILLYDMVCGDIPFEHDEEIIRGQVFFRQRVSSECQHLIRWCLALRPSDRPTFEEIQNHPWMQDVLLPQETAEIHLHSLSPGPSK
MAP3K6 (human), sequence (O95382 whole entry, looked up): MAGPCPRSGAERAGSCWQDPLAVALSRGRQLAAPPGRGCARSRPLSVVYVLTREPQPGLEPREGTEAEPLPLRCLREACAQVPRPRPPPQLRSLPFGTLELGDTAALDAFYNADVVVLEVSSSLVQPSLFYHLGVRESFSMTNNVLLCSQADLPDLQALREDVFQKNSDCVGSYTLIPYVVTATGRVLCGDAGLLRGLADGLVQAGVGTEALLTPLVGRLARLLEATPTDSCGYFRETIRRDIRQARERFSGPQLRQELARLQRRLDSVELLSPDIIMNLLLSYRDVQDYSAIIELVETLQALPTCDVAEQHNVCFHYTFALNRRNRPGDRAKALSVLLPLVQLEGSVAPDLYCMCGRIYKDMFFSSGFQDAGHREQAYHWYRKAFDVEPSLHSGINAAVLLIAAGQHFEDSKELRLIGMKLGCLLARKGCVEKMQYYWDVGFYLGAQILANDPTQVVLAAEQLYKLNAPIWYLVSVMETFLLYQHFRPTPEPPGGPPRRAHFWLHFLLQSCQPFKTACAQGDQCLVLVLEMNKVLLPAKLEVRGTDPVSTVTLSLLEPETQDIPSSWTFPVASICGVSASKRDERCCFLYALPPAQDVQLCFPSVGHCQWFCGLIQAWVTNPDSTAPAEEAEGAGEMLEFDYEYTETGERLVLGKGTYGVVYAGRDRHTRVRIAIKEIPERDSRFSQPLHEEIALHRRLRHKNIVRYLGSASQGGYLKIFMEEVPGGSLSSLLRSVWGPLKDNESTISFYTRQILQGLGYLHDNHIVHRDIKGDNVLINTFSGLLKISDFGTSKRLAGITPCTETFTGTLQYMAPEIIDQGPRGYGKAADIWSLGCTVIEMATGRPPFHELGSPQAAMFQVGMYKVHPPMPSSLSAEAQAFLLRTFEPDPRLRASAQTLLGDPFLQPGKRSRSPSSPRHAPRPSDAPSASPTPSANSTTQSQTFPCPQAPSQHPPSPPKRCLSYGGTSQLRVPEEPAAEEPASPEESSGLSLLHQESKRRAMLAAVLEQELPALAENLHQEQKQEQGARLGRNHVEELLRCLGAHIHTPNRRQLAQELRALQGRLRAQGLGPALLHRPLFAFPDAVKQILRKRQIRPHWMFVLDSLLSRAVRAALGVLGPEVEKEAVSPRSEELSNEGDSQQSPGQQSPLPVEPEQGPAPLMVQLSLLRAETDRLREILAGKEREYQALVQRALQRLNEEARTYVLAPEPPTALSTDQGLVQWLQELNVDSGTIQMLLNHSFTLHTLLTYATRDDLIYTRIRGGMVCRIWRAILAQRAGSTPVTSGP
MKNK1 (human), sequence (Q9BUB5 whole entry, looked up): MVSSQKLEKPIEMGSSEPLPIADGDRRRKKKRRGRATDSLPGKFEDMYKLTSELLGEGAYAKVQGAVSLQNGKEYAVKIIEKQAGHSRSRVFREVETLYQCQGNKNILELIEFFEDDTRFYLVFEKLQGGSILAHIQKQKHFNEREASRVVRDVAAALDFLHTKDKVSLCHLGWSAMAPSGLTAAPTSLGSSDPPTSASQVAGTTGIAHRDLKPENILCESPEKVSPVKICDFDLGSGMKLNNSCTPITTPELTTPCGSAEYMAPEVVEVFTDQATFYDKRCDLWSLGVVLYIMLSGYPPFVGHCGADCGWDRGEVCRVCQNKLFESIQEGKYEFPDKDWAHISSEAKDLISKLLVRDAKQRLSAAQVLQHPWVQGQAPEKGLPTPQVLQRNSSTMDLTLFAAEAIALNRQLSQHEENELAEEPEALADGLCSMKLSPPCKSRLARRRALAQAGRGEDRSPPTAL
PAK2 (human), sequence (Q13177 whole entry, looked up): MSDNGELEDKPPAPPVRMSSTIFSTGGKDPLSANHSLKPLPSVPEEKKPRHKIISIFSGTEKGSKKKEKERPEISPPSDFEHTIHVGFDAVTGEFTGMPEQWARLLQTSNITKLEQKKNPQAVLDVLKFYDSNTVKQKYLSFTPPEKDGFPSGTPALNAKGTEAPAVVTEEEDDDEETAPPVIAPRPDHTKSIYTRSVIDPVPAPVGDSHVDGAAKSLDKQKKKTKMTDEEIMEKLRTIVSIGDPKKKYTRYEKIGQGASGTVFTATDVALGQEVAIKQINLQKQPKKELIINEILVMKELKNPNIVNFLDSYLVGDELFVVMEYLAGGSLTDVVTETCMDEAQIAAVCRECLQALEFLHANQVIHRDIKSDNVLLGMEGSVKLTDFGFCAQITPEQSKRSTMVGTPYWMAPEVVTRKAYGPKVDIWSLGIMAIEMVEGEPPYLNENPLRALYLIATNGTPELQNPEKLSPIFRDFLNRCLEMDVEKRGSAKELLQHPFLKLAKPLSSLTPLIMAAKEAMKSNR
CAMK2A (human), sequence (Q9UQM7 whole entry, looked up): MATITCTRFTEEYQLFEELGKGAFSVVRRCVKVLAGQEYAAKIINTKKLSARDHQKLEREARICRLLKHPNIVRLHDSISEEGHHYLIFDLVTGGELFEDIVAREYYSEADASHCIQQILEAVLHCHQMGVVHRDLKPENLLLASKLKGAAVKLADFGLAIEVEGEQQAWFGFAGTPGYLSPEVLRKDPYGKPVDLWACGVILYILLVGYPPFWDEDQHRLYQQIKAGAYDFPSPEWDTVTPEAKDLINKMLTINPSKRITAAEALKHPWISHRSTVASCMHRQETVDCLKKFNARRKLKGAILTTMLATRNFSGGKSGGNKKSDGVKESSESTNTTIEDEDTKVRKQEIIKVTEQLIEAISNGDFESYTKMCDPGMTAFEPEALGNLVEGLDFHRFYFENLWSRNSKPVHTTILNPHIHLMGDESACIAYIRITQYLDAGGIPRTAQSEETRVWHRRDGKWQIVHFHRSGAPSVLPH
RPS6KA4 KD1 (human), sequence (O75676 whole entry, looked up): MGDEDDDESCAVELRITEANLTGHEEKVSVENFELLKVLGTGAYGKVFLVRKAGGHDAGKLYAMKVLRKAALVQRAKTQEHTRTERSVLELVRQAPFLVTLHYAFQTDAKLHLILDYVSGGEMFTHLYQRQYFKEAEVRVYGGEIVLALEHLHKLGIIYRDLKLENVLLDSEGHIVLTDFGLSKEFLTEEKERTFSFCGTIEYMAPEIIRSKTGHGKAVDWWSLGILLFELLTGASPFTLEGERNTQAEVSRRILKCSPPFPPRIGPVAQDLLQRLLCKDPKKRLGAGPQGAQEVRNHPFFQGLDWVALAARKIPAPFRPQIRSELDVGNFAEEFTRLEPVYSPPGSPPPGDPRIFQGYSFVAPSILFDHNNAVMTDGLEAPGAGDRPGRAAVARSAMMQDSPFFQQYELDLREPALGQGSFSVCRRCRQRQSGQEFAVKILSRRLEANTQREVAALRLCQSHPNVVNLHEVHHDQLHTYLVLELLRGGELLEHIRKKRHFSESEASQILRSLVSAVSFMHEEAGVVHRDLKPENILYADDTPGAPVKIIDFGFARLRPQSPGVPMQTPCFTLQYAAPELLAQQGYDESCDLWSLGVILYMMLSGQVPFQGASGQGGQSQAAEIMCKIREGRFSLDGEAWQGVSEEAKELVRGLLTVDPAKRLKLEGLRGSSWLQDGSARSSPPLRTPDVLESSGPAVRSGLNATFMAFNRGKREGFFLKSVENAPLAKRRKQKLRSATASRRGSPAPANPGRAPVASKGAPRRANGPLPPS

| SMILES | kinase still bound, per cent of control (BRSK1 (human)) | kinase still bound, per cent of control (CAMK2A (human)) | kinase still bound, per cent of control (CDC42BPB (human)) | kinase still bound, per cent of control (CDK5 (human)) | kinase still bound, per cent of control (CSNK1G3 (human)) | kinase still bound, per cent of control (DAPK2 (human)) | kinase still bound, per cent of control (DCLK2 (human)) | kinase still bound, per cent of control (FER (human)) | kinase still bound, per cent of control (FYN (human)) | kinase still bound, per cent of control (GRK4 (human)) | kinase still bound, per cent of control [2] | kinase still bound, per cent of control (KIT (human)) | kinase still bound, per cent of control (MAP2K1 (human)) | kinase still bound, per cent of control (MAP3K10 (human)) | kinase still bound, per cent of control (MAP3K2 (human)) | kinase still bound, per cent of control (MAP3K6 (human)) | kinase still bound, per cent of control (MAPK14 (human)) | kinase still bound, per cent of control (MKNK1 (human)) | kinase still bound, per cent of control (MYLK2 (human)) | kinase still bound, per cent of control (NEK1 (human)) | also measured |
| --- | --- | --- | --- | --- | --- | --- | --- | --- | --- | --- | --- | --- | --- | --- | --- | --- | --- | --- | --- | --- | --- |
| C[C@@H](Oc1cc(-c2cnn(C3CCNCC3)c2)cnc1N)c1c(Cl)ccc(F)c1Cl | 48% | 100% | 62% | 100% | 100% | 97% | 1.2% | 2% | 10% | 14% | 0.45% | 43% | 64% | 79% | 0.05% | 87% | 100% | 100% | 73% | 56% | kinase still bound, per cent of control [1]: 6.8%; kinase still bound, per cent of control (NUAK1 (human)): 0.7%; kinase still bound, per cent of control (PAK2 (human)): 96%; kinase still bound, per cent of control (PIK3CD (human)): 100%; kinase still bound, per cent of control (PIM1 (human)): 100%; kinase still bound, per cent of control (PLK4 (human)): 0.1%; kinase still bound, per cent of control (PRKCE (human)): 100%; kinase still bound, per cent of control (RPS6KA4 KD1 (human)): 100%; kinase still bound, per cent of control (RPS6KB1 (human)): 1.8%; kinase still bound, per cent of control (SNRK (human)): 100%; kinase still bound, per cent of control (STK11 (human)): 57%; kinase still bound, per cent of control (TAOK2 (human)): 0.9%; kinase still bound, per cent of control (TRPM6 (human)): 79%; kinase still bound, per cent of control [3]: 14% |
| CNC(=O)c1cc(Oc2ccc(NC(=O)Nc3ccc(Cl)c(C(F)(F)F)c3)cc2)ccn1 | 92% | 94% | 100% | 39% | 91% | 87% | 100% | 87% | 48% | 100% | 50% | 0% | 100% | 73% | 100% | 100% | 0.2% | 2.1% | 43% | 88% | kinase still bound, per cent of control (MAP3K3 (human)): 86%; kinase still bound, per cent of control (MAP4K5 (human)): 7.2%; kinase still bound, per cent of control [4]: 70%; kinase still bound, per cent of control (NUAK1 (human)): 84%; kinase still bound, per cent of control (PAK2 (human)): 73%; kinase still bound, per cent of control (PIM1 (human)): 98%; kinase still bound, per cent of control (PLK4 (human)): 28%; kinase still bound, per cent of control (PRKCE (human)): 86%; kinase still bound, per cent of control (RPS6KA4 KD1 (human)): 85%; kinase still bound, per cent of control (RPS6KB1 (human)): 63%; kinase still bound, per cent of control (SNRK (human)): 100%; kinase still bound, per cent of control (STK11 (human)): 76%; kinase still bound, per cent of control (STK35 (human)): 34%; kinase still bound, per cent of control (TAOK2 (human)): 1.6%; kinase still bound, per cent of control (TRPM6 (human)): 100%; kinase still bound, per cent of control [3]: 70% |
| COc1cc(N2CCN(C)CC2)ccc1Nc1ncc2c(n1)N(C)c1ccccc1C(=O)N2C | 100% | 32% | 100% | 100% | 100% | 100% | 0.45% | 32% | 100% | 100% | 100% | 100% | 100% | 100% | 32% | 100% | 100% | 100% | 100% | 100% | kinase still bound, per cent of control [5]: 100%; kinase still bound, per cent of control [1]: 100%; kinase still bound, per cent of control (MAP3K3 (human)): 100%; kinase still bound, per cent of control (MAP4K5 (human)): 100%; kinase still bound, per cent of control (MAPK12 (human)): 100%; kinase still bound, per cent of control [4]: 100%; kinase still bound, per cent of control (NUAK1 (human)): 7.6%; kinase still bound, per cent of control (PAK2 (human)): 100%; kinase still bound, per cent of control (PIK3CD (human)): 33%; kinase still bound, per cent of control (PIM1 (human)): 100%; kinase still bound, per cent of control (PLK4 (human)): 6.8%; kinase still bound, per cent of control (PRKCE (human)): 100%; kinase still bound, per cent of control (RPS6KA4 KD1 (human)): 100%; kinase still bound, per cent of control (STK11 (human)): 100%; kinase still bound, per cent of control (STK35 (human)): 100%; kinase still bound, per cent of control [3]: 100% |
| CCN(CC)CCCCNc1ncc2c(n1)N(C)C(=O)N(c1c(Cl)c(OC)cc(OC)c1Cl)C2 | 100% | 100% | 100% | 100% | 100% | 100% | 100% | 100% | 100% | 100% | 100% | 6.7% | 100% | 100% | 6.8% | 100% | 100% | 100% | 100% | 100% | kinase still bound, per cent of control [5]: 100%; kinase still bound, per cent of control [1]: 100%; kinase still bound, per cent of control (MAP3K3 (human)): 3.8%; kinase still bound, per cent of control (MAP4K5 (human)): 23%; kinase still bound, per cent of control (MAPK12 (human)): 100%; kinase still bound, per cent of control [4]: 100%; kinase still bound, per cent of control (NUAK1 (human)): 100%; kinase still bound, per cent of control (PAK2 (human)): 100%; kinase still bound, per cent of control (PIK3CD (human)): 100%; kinase still bound, per cent of control (PIM1 (human)): 100%; kinase still bound, per cent of control (PLK4 (human)): 100%; kinase still bound, per cent of control (PRKCE (human)): 100%; kinase still bound, per cent of control (RPS6KA4 KD1 (human)): 100%; kinase still bound, per cent of control (STK11 (human)): 100%; kinase still bound, per cent of control (STK35 (human)): 100%; kinase still bound, per cent of control [3]: 100% |
